Measured values: patent publication US20190282600A1, “COMBINATION THERAPIES TARGETING TERT DEPENDENCY FOR CANCER THERAPY” (The Wistar Institute of Anatomy and Biology, priority 2018, published 2019)

System: NRAS mutant melanoma cells
Experiment: Telomere dysfunction-induced foci (TIF) assay, IF-FISH
Format: cell-based, Human
Conditions: 6-thio-dG for 7 days
Description: NRAS mutant melanoma cells WM3000 were transduced with TERT shRNA and treated with NAC (mM) for 7 days. […] Representative images are shown. (scale bar=10 μm). Quantification of TIF positive cells is plotted in FIG. 13b. Cells were scored as TIF positive when three or more g-H2AX foci (green) were co-localizing with telomere foci (red). Data represent average of thirteen fields imaged +/−SD.
NRAS^mut melanoma cells were treated with 6-thio-dG for 6, 12 or 18 days. As presented in FIG. 15a, relative cell number was assessed by Crystal Violet assay and calculated relative to DMSO-treated cells. Data represent average of three independent experiments +/−SD. […] NRAS^mut cells were treated with 6-thio-dG for 7 days and telomere induced foci (TIF) was determined by indirect immunofluorescence combined with fluorescence in situ hybridization (FISH) (FIG. 15c). […] Quantification of TIF assay is plotted in FIG. 15d. Cells were scored as TIF positive when four or more γ-H2AX foci (green, center row of FIG. 15c labelled as γH2AX) were co-localizing with telomere foci (red, top row of FIG. 15c labelled as Telomeres). […] P values were calculated by unpaired Student's t-test.
For TIF analysis, indirect immunofluorescence (IF) combined with fluorescence in situ hybridization (FISH) was performed as previously described with some modifications. […] TIF were quantified from at least three independent experiments.

**Q.** How did the TIFs turn out when `Nc1nc2c(ncn2[C@H]2C[C@H](O)[C@@H](CO)O2)c(=S)[nH]1` [6-thio-dG, 6-thio-2′-deoxyguanosine] was run?
**A.** increased levels
